What was measured:
[1] = system: subject 3; assay: Skin blood microcirculation (SKBF) response to taste stimuli, PCA sensory space (ESRP); type: in vivo, human; details: concentration 4
Excerpt: A Periflux PF 5010 (Perimed AB, Sweden) system was chosen, which enables non-invasive monitoring of blood perfusion in the capillaries, arterioles and venules.
The unit of blood perfusion is arbitrary and corresponds to the product of the mean rate of displacement of the red blood cells by their concentration. The system Periflux PF 5010 has a 780 nm, 1 mm diameter laser beam without thermal effect. An optical fiber probe PR407 is used. The low-energy laser beam is transmitted by the probe to the tissue. A portion of the light reflects off the static structures and another portion of the light reflects off the moving blood cells. When the light reflects off a moving cell, the wavelength is modified, which corresponds to the Doppler effect. The scattered light collected by the optical fiber is used to calculate the perfusion value. The measurement is expressed in perfusion units (PU). Recording was carried out on the pad of the index finger of the non-dominant hand, due to the high level of vascularization of this zone. The perfusion signals were recorded by an 8-channel PowerLab PL35088/35 acquisition system; the data were collected at a frequency of 1 kHz and analyzed by the LabChart® software (AD instruments Ltd, United Kingdom).
. Then, the peak was analyzed manually by selecting the whole of the peak and analyzing it with the LabChart® software (FIG. 1).
Several shape parameters were extracted from the signal (i.e. amplitude, duration, gradient). […]
The SKBF responses were analyzed individually by one-way ANOVA (product effect), the subjects having their own “preferential channel” (Lacey, J. I., Bateman, D. E. & VanLEHN, R., 1953, Autonomic response specificity: An experimental study. Psychosomatic Medicine, 15, 8-21). […]

[2] = cited from earlier work; for detection threshold concentration of the basic taste: literature (Purves 2005; Robinson 2005); for detection threshold: representative compound of a primary taste

Structure (SMILES) | SKBF disturbance (signal width, area of the peak; ANOVA) [1] | detection threshold concentration of the basic taste [2] | detection threshold [2]
O=C(O)CC(O)(CC(=O)O)C(=O)O [Citric acid, citric acid] | significantly stronger disturbance than the others | approximately 2 mmol·l^−1 | 0.384 to 0.5 g/L
[Cl-].[Na+] [NaCl, sodium chloride] | significantly stronger disturbance than the others | approximately 10 mmol·l^−1 | 0.584 g/L

— patent US20180188224A1, “METHOD FOR CONSTRUCTING A SENSORY SPACE” (CENTRE SCIENTIFIQUE ET TECHNIQUE DU BATIMENT (CSTB), priority 2015, published 2018)
